SMILES strings stand for the structures.

The results in this text go back to US20260055110A1 (Azura Ophthalmics Ltd., priority 2021, published 2026).

Data set [1] is described as follows: Aqueous Hydrolysis Stability Assay. Conditions: DPBS pH 7.4, 37° C.
Method: Example 2: Aqueous Hydrolysis Stability Assay
Determination of aqueous stability of the test compounds was performed using UPLC-MS. A test compound 10 mM stock solution was prepared in DMSO. 10 μL of the DMSO stock solution was dissolved in 990 μL of DPBS pH 7.4 buffer to prepare a 100 μM stock. A further dilution was made by dissolving 75 μl of 100 μM stock into 225 μL of DPBS. Final DMSO concentration is 0.25%. The solution is kept at 37° C. and injected without delay into the LCMS (Waters Xevo TQ-). Additional injections were performed at appropriate time points.
Half-life (T1/2) of the parent conjugate was calculated using the peak area or measured concentration of the parent conjugate at each time point in the linear region of the log—linear plot.
Data set [2] relates to Rabbit Cornea Esterase. Nature of the data set: Rabbit Cornea Homogenate Stability Assay (Rabbit Cornea Esterase Assay). The format is in vitro ADME. Here is the method: Example 1: Rabbit Cornea Homogenate Stability Assay […]
Three to four rabbit corneas (e.g., New Zealand Whites (NZW) or Dutch Belted (DB)) of approx. 50 mg each were sliced and scraped with a scalpel and tweezers until reduced to small (1-3 mm), thin pieces. These were transferred into a glass vial containing approximately 2 mL of cold DPBS pH 7.4 buffer.
Sample was cooled intermittently on ice and shear homogenized for 3 minutes, then centrifuged for 3 min at 13,000 g. The supernatant was pipetted off into a vial, and total protein concentration determined at 280 nm. Sample was stored at −78° C.
10 mM Compound DMSO stocks were diluted to 10 μM in a glass vial: 10 μL of 10 mM Compound stock was added to 9,990 μl 50 mM DPBS, pH 7.4 buffer. Esterase homogenate was diluted to 300 ng/μl and 900 ng/μL in DPBS.
A heater shaker was set to 37° C. Into a suitable 96 well plate (Run Plate), 70 μL of 300 or 900 ng/μl esterase homogenate was pipetted into two rows as compounds were analyzed in duplicate (2 min, 5 min, 10 min, 20 min and 45 min). The plate was sealed and then warmed at 37° C. for 5 min.
Two 96 deep-well plates were put on ice (Kill Plates). To these, 990 μL of 50:50 MeCN—H2O were added to required rows, labelled 0 min 2 min, 5 min, 10 min, 20 min and 45 min. The plates were covered to minimize evaporation.
To both rows of the Run Plate, 70 μL of 10 μM compound solution was added. At the appropriate time point, 10 μL of the assay mixture was added to the matching kill plate well containing 990 μL of 50:50 cold MeCN—H2O. Samples were analyzed as soon as practicable by UPLC-MS (Waters Xevo TQ-S).
A heater shaker was set to 37° C. Into a suitable 96 well plate (Run Plate), 80 μL of 300 or 900 ng/μL esterase homogenate was pipetted into two rows as compounds were analyzed in duplicate (2 min, 5 min, 10 min, 20 min and 45 min). The plate was sealed and then warmed at 37° C. for 5 min.
Two 96 shallow-well plates were placed on ice (Kill Plates). To these, 180 μL of 60:40 MeCN-H2O+0.1% acetic acid are added to required rows. The plates were sealed to minimize evaporation.
To both rows of the Run Plate, 80 μL of 10 μM compound solution was added. At the appropriate time point, 20 μL of the assay mixture was added to the matching kill plate well containing 180 μL of 60:40 cold MeCN-H2O+0.1% acetic acid. For lipoic acid analysis, samples were analyzed as soon as practicable by LCMS (Waters Xevo TQ-S). For parent conjugate and parent analysis the samples are diluted further 1 in 10: 20 μL supernatant is added to 180 μL of 50:50 MeCN—H2O.

Where [3] appears, read: rabbit cornea homogenate 0.15 mg/mL total protein, DB, 37° C.
Where [4] appears, read: rabbit cornea homogenate 0.45 mg/mL total protein, DB, 37° C.
Where [5] appears, read: rabbit cornea homogenate 0.15 mg/mL total protein, NZW, 37° C.
Where [6] appears, read: rabbit cornea homogenate 0.45 mg/mL total protein, NZW, 37° C.

For the molecule `CC(C)OC(=O)OC(C)n1ccc2c(-c3cnn([C@H](CC#N)C4CCCC4)c3)ncnc21` (stereo partly shown) [Compound 50], the “Aqueous Stability (DPBS) % parent released after t min” value in data set [1] (t = 44) is on record as “B (t = 44) (25% to 50%)”. Also, in data set [2] (setting [3]), the “Esterase (0.15 mg/mL) % parent released after 45 min” value was “D (DB) (>75%)”. In data set [2] (setting [4]), the “Esterase (0.45 mg/mL) % parent released after 45 min” value is reported as “D (DB) (>75%)”.

Consider `C=CC(=O)N1C[C@H](Nc2ncnc3c2ccn3C(=O)OC(C)C)CC[C@@H]1C` [Compound 23], for which, in data set [2] (setting [5]), the “Esterase (0.15 mg/mL) % parent released after 45 min” value is “A (NZW) (<25%)”. In addition, in data set [2] (setting [6]), the “Esterase (0.45 mg/mL) % parent released after 45 min” value is given as “A (NZW) (<25%)”.

In the case of `N#CC[C@@H](C1CCCC1)n1cc(-c2ncnc3c2ccn3COC(=O)CCCC[C@@H]2CCSS2)cn1` [Compound 40], the “Aqueous Stability (DPBS) % parent released after t min” value in data set [1] (t = 45) was “A (t = 45) (<25%)”. The “Esterase (0.15 mg/mL) % parent released after 45 min” value in data set [2] (setting [5]) is listed as “D (NZW) (>75%)”. Moreover, in data set [2] (setting [6]), the “Esterase (0.45 mg/mL) % parent released after 45 min” value is “D (NZW) (>75%)”.

Regarding `N#CC[C@@H](C1CCCC1)n1cc(-c2ncnc3c2ccn3C(=O)CCCC[C@@H]2CCSS2)cn1` [Compound 39], the “Aqueous Stability (DPBS) % parent released after t min” value in data set [1] (t = 45) is reported as “B (t = 45) (25% to 50%)”. Besides, the “Esterase (0.15 mg/mL) % parent released after 45 min” value in data set [2] (setting [5]) is reported as “B (NZW) (25% to 50%)”. Besides, the “Esterase (0.45 mg/mL) % parent released after 45 min” value in data set [2] (setting [6]) is on record as “C (NZW) (51% to 75%)”.

Regarding `CC(C)C(=O)OC(C)n1ccc2c(-c3cnn([C@H](CC#N)C4CCCC4)c3)ncnc21` (stereo partly shown) [Compound 48], the “Esterase (0.15 mg/mL) % parent released after 45 min” value in data set [2] (setting [5]) was “A (NZW) (<25%)”. Besides, the “Esterase (0.45 mg/mL) % parent released after 45 min” value in data set [2] (setting [6]) is recorded as “A (NZW) (<25%)”.

Turning to `CC(OC(=O)CCCC[C@@H]1CCSS1)n1ccc2c(-c3cnn([C@H](CC#N)C4CCCC4)c3)ncnc21` (stereo partly shown) [Compound 38], the “Aqueous Stability (DPBS) % parent released after t min” value in data set [1] (t = 48) was “A (t = 48) (<25%)”. Moreover, the “Esterase (0.15 mg/mL) % parent released after 45 min” value in data set [2] (setting [5]) is given as “B (NZW) (25% to 50%)”. The “Esterase (0.45 mg/mL) % parent released after 45 min” value in data set [2] (setting [6]) is recorded as “C (NZW) (51% to 75%)”.

Turning to `C[C@]12C=CC(=O)C=C1CC[C@@H]1[C@@H]2[C@@H](O)C[C@@]2(C)[C@H]1CC[C@]2(OC(=O)CCCC[C@@H]1CCSS1)C(=O)OCCl` [Compound 59], the “Aqueous Stability (DPBS) T1/2 after t min” value in data set [1] (t = 45) came to 31.6 min. The “Esterase (0.9 mg/mL) T1/2 (45 min)” value in data set [2] (rabbit cornea homogenate 0.9 mg/mL, NZW, 37° C.) is given as 22.6 (NZW) min. In addition, the “Esterase (2.0 mg/mL) T1/2 (45 min)” value in data set [2] (rabbit cornea homogenate 2.0 mg/mL, NZW, 37° C.) is given as 21.3 (NZW) min.

Regarding `CC(=O)N[C@@H](CS)C(=O)O[C@]1(C(=O)OCC#N)[C@H](C)C[C@H]2[C@@H]3C[C@H](F)C4=CC(=O)C=C[C@]4(C)[C@@]3(F)[C@@H](O)C[C@@]21C` [Compound 73B, Cyanomethyl (6S,8S,9R,10S,11S,13S,14S,16R,17R)-17-((acetyl-L-cysteinyl)oxy)-6,9-difluoro-11-hydroxy-10,13,16-trimethyl-3-oxo-6,7,8,9,10,11,12,13,14,15,16,17dodecahydro-3H-cyclopenta[a]phenanthrene-17-carboxylate], the “Esterase (0.15 mg/mL) % parent released after 45 min” value in data set [2] (Table 13, rabbit cornea homogenate 0.15 mg/mL, rabbit breed not given) is recorded as “A (<25%)”. In addition, in data set [2] (Table 13, rabbit cornea homogenate 0.45 mg/mL, rabbit breed not given), the “Esterase (0.45 mg/mL) % parent released after 45 min” value was “A (<25%)”.

On to `C=CC(=O)N1C[C@H](Nc2ncnc3c2ccn3C(C)OC(=O)OC(C)C)CC[C@@H]1C` (stereo partly shown) [Compound 22], for which the “Esterase (0.15 mg/mL) % parent released after 45 min” value in data set [2] (setting [5]) was “D (NZW) (>75%)”. Further, in data set [2] (setting [6]), the “Esterase (0.45 mg/mL) % parent released after 45 min” value is “D (NZW) (>75%)”.

With `CC(C)C(=O)n1ccc2c(-c3cnn([C@H](CC#N)C4CCCC4)c3)ncnc21` [Compound 49], in data set [2] (setting [5]), the “Esterase (0.15 mg/mL) % parent released after 45 min” value is listed as “D NZW) (>75%)”. Moreover, the “Esterase (0.45 mg/mL) % parent released after 45 min” value in data set [2] (setting [6]) is “D (NZW) (>75%)”.

For `CC(C)OC(=O)n1ccc2c(-c3cnn([C@H](CC#N)C4CCCC4)c3)ncnc21` [Compound 51], in data set [1] (t = 45), the “Aqueous Stability (DPBS) % parent released after t min” value is “A (t = 45) (<25%)”. In addition, the “Esterase (0.15 mg/mL) % parent released after 45 min” value in data set [2] (setting [3]) is reported as “A (DB) (<25%)”. In addition, the “Esterase (0.45 mg/mL) % parent released after 45 min” value in data set [2] (setting [4]) was “B (DB) (25% to 50%)”.

For `CNS(=O)(=O)CC1CCC(N(C)c2ncnc3c2ccn3COC(=O)CCCC[C@@H]2CCSS2)CC1` (stereo partly shown) [Compound 31], the “Aqueous Stability (DPBS) % parent released after t min” value in data set [1] (t = 44) was “A (t = 44) (<25%)”. The “Esterase (0.15 mg/mL) % parent released after 45 min” value in data set [2] (setting [5]) was “C (NZW) (51% to 75%)”. Also, in data set [2] (setting [6]), the “Esterase (0.45 mg/mL) % parent released after 45 min” value was “C (NZW) (51% to 75%)”.

For the molecule `C=CC(=O)N1C[C@H](Nc2ncnc3c2ccn3COC(=O)CCCC[C@@H]2CCSS2)CC[C@@H]1C` [Compound 12], the “Aqueous Stability (DPBS) % parent released after t min” value in data set [1] (t = 44) is “A (t = 44) (<25%)”. In addition, the “Esterase (0.15 mg/mL) % parent released after 45 min” value in data set [2] (setting [5]) is “B (NZW) (25% to 50%)”. Moreover, the “Esterase (0.45 mg/mL) % parent released after 45 min” value in data set [2] (setting [6]) is given as “B (NZW) (25% to 50%)”.
